Experimental data from ChEMBL document CHEMBL1201862, “PubChem BioAssay data set” (2004).
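Protocol summary: plate cells (96-well), add compound at 5 concentrations, incubate 48 h, interpolate endpoints linearly. Abbreviation: GI50, concentration required for 50% inhibition of growth.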 Calls of active or inactive are those of the source. Cut-off read from the data, not from the text of the source: active = GI50 up to about 1.1 µM and inactive = higher.

Tests used:
Test in all cases: DTP human tumour cell line panel, 48 h
[1] = system: DLD-1
[2] = system: KM-20L2
[3] = system: M19-MEL
[4] = system: XF498
[5] = system: LXFL 529
[6] = system: RXF 631
[7] = system: HOP-18
[8] = system: SNB-78
[9] = system: DMS-273

SMILES	GI50 [1]	GI50 [2]	GI50 [3]	GI50 [4]	GI50 [5]	GI50 [6]	GI50 [7]	GI50 [8]	GI50 [9]
c1ccc(COc2cccc3cccnc23)cc1	> 100 µM (inactive)	> 100 µM (inactive)	67.3 µM (inactive)	70.8 µM (inactive)	47.8 µM (inactive)	> 100 µM (inactive)	21.6 µM (inactive)		
O=[As]O	17.8 µM (inactive)	48.3 µM (inactive)	20.5 µM (inactive)	17.5 µM (inactive)	16.2 µM (inactive)	10.1 µM (inactive)		12.6 µM (inactive)	24.2 µM (inactive)
CCc1ccc(/C=C\c2cc(OC)c(OC)c(OC)c2)cc1	0.378 µM (active)	0.0342 µM (active)	0.163 µM (active)		0.211 µM (active)		0.48 µM (active)	0.15 µM (active)	0.305 µM (active)
COC1OC(C)C(OCc2ccccc2)C(OS(=O)(=O)c2ccc(C)cc2)C1OS(=O)(=O)c1ccc(C)cc1 (centres undefined)	> 100 µM (inactive)	> 100 µM (inactive)	> 100 µM (inactive)		> 100 µM (inactive)		> 100 µM (inactive)	> 100 µM (inactive)	> 100 µM (inactive)
Nc1cc2c(C3OC(CO)C(O)C3O)n[nH]c2c(=S)[nH]1 (centres undefined)	> 100 µM (inactive)	> 100 µM (inactive)	> 100 µM (inactive)	> 100 µM (inactive)	> 100 µM (inactive)	> 100 µM (inactive)		> 100 µM (inactive)	> 100 µM (inactive)
CCCCOC(=O)NC(=O)c1cn(CCCOC(=O)NCCCCCCNC(=O)OCCCn2cc(C(=O)NC(=O)OCCCC)c(=O)[nH]c2=O)c(=O)[nH]c1=O	> 100 µM (inactive)	> 100 µM (inactive)	> 100 µM (inactive)	18.7 µM (inactive)	90.4 µM (inactive)	> 100 µM (inactive)	> 100 µM (inactive)	> 100 µM (inactive)	> 100 µM (inactive)
COc1cc2c(c(C)c1O)[C@H]1COc3ccccc3[C@H]1O2	24.4 µM (inactive)	18.2 µM (inactive)	12.5 µM (inactive)		14.6 µM (inactive)	11.6 µM (inactive)	1.37 µM (inactive)	23.4 µM (inactive)	5.81 µM (inactive)
CC1(C)OC(=O)C(=Cc2ccc(O)cc2)C(=O)O1		> 100 µM (inactive)	> 100 µM (inactive)	> 100 µM (inactive)	> 100 µM (inactive)			> 100 µM (inactive)	> 100 µM (inactive)
NC(=O)N/N=C(/Cc1nc2ccc(C(=O)c3ccccc3)cc2nc1O)C(=O)Nc1ccc(C(F)(F)F)cc1[N+](=O)[O-]	> 100 µM (inactive)	98.2 µM (inactive)	> 100 µM (inactive)	38.6 µM (inactive)	45.5 µM (inactive)	47 µM (inactive)	60.3 µM (inactive)	> 100 µM (inactive)	51.9 µM (inactive)
CC1=NN(C(=O)CC(=O)NC(=O)CC(=O)Nc2ccccc2F)C(=O)C1/N=N/c1ccc([N+](=O)[O-])cc1 (centres undefined)	42.3 µM (inactive)	29.8 µM (inactive)	30.3 µM (inactive)	28.3 µM (inactive)	37.2 µM (inactive)	30.2 µM (inactive)	31.5 µM (inactive)	> 100 µM (inactive)	39.1 µM (inactive)
CCCCCN(CCCCC)C(=O)[C@H](CCC(=O)O)NC(=O)c1cc2ccccc2[nH]1	38.3 µM (inactive)	55.3 µM (inactive)	45.5 µM (inactive)	44.9 µM (inactive)	56.6 µM (inactive)			95.1 µM (inactive)	49.2 µM (inactive)
CCCc1nc(NC#N)nc(C(=O)Nc2ccccc2)c1CC	> 100 µM (inactive)	> 100 µM (inactive)	> 100 µM (inactive)	> 100 µM (inactive)	> 100 µM (inactive)	> 100 µM (inactive)	> 100 µM (inactive)	> 100 µM (inactive)	> 100 µM (inactive)
N#Cc1sc2nc3c(c(-c4ccccc4)c2c1N)CCCC3			> 100 µM (inactive)	37.9 µM (inactive)	> 100 µM (inactive)	9.25 µM (inactive)		56 µM (inactive)	57.9 µM (inactive)
Cc1ccc(C)c(N2C(=O)C(=O)C(c3nc4ccccc4s3)/C(=N/NC(=O)NN)C2=O)c1 (centres undefined)	> 100 µM (inactive)	> 100 µM (inactive)	> 100 µM (inactive)	> 100 µM (inactive)	> 100 µM (inactive)	> 100 µM (inactive)	> 100 µM (inactive)	> 100 µM (inactive)	> 100 µM (inactive)
O=c1nc2sc3ccc4ccccc4c3n2nc1O	40.9 µM (inactive)	25.3 µM (inactive)			68.1 µM (inactive)		71.3 µM (inactive)	70.3 µM (inactive)	39.8 µM (inactive)
O=C(O)\C=C/C=C/C=C/C=C/C(=O)O	> 100 µM (inactive)	> 100 µM (inactive)			> 100 µM (inactive)		> 100 µM (inactive)	> 100 µM (inactive)	> 100 µM (inactive)
CC12C=C[C@]3(CC[C@@H]4[C@@](C)(CO)CCC[C@]4(C)C3CC1)C2 (some centres undefined)	> 10 µM (inactive)	0.382 µM (active)	19.2 µM (inactive)	19.6 µM (inactive)	16.9 µM (inactive)			18.6 µM (inactive)	16.1 µM (inactive)
Nc1ccc(/C=C/c2ccnc3ccccc23)cc1	22.9 µM (inactive)	20.2 µM (inactive)	31 µM (inactive)		19.7 µM (inactive)				18.1 µM (inactive)
O=C1/C(=C/c2ccccc2Cl)COc2ccc(Br)cc21	65.9 µM (inactive)	> 100 µM (inactive)	> 100 µM (inactive)	27.2 µM (inactive)	63 µM (inactive)		54.1 µM (inactive)	43.1 µM (inactive)	32.3 µM (inactive)
CC(=O)OCC1OC(n2cc(I)c(=O)[nH]c2=O)C(OC(C)=O)C(OC(C)=O)C1OC(C)=O (centres undefined)	> 100 µM (inactive)	> 100 µM (inactive)	> 100 µM (inactive)	> 100 µM (inactive)	> 100 µM (inactive)		> 100 µM (inactive)		> 100 µM (inactive)
CC(c1ccccc1)N1O[C@]12CC[C@@]1(C)C(CCCC13OCCO3)C2 (some centres undefined)	17.1 µM (inactive)	> 100 µM (inactive)	23 µM (inactive)	22.5 µM (inactive)				20.3 µM (inactive)	19.2 µM (inactive)
O=C(OC[C@H]1O[C@@H](OC(=O)c2cc(O)c(O)c(O)c2)[C@H](OC(=O)c2cc(O)c(O)c(O)c2)[C@@H](OC(=O)c2cc(O)c(O)c(O)c2)[C@@H]1OC(=O)c1cc(O)c(O)c(O)c1)c1cc(O)c(O)c(O)c1 [PENTAGALLOYL GLUCOSE]	7 µM (inactive)	4.27 µM (inactive)	9.14 µM (inactive)	4.85 µM (inactive)	11.4 µM (inactive)		36.6 µM (inactive)	9.51 µM (inactive)	1.46 µM (inactive)
C#CCOCn1cnc2c(S)ncnc21	> 100 µM (inactive)	> 100 µM (inactive)	> 100 µM (inactive)	> 100 µM (inactive)	> 100 µM (inactive)	> 100 µM (inactive)			> 100 µM (inactive)
